What is called inhibition is how much of the control response was suppressed.

Each structure is given as a SMILES string. Active and inactive are the calls of the source. The rule behind the calls is not given here.

For assay [1], the system named is BV-2. Nature of the assay: Antiinflammatory activity against mouse BV-2 cells assessed as inhibition of LPS-induced nitric oxide release at 20 uM measured after 24 hrs by Griess reagent based ELISA relative to control. The assay is classed as functional.
The subject of assay [2] is BV-2. Nature of the assay: Antiinflammatory activity against mouse BV-2 cells assessed as inhibition of LPS-induced TNF-alpha production at 2 to 20 uM measured after 24 hrs by ELISA. It is filed as functional, cell-based. As to conditions: dose 2-20 µM.
Assay [3] relates to BV-2. The assay can be described thus: Antiinflammatory activity against mouse BV-2 cells assessed as inhibition of LPS-induced IFN-gamma production at 2 to 20 uM measured after 24 hrs by ELISA. As to conditions: dose 2-20 µM. It is filed as functional, cell-based.
Assay [4] concerns BV-2. Nature of the assay: Antiinflammatory activity against mouse BV-2 cells assessed as inhibition of LPS-induced decrease of IL-4 at 2 to 20 uM measured after 24 hrs by ELISA. As to conditions: dose 2-20 µM. It is filed as functional, cell-based. A general note: In an ELISA, binding on a coated surface is turned into a signal by an enzyme label.
Assay [5] concerns BV-2. Nature of the assay: Antiinflammatory activity against mouse BV-2 cells assessed as inhibition of LPS-induced decrease of IL-10 at 2 to 20 uM measured after 24 hrs by ELISA. The assay is classed as functional, cell-based. The following applies: dose 2-20 µM.
Assay [6] concerns BV-2. The assay can be described thus: Antiinflammatory activity against mouse BV-2 cells assessed as inhibition of LPS-induced iNOS mRNA expression at 20 uM measured after 24 hrs by SYBR green staining based RT-PCR analysis. The assay is classed as functional, cell-based.
Assay [7] relates to BV-2. The assay can be described thus: Antiinflammatory activity against mouse BV-2 cells assessed as effect on LPS-induced Arg1 mRNA expression at 20 uM measured after 24 hrs by SYBR green staining based RT-PCR analysis. The assay is classed as functional, cell-based.
The test system of assay [8] is BV-2. The assay can be described thus: Antiinflammatory activity against mouse BV-2 cells assessed as effect on LPS-induced CD206 mRNA expression at 20 uM measured after 24 hrs by SYBR green staining based RT-PCR analysis. The assay is classed as functional, cell-based.
Assay [9] has as its system BV-2. Nature of the assay: Antiinflammatory activity against mouse BV-2 cells assessed as effect on LPS-induced TGFbeta mRNA expression at 20 uM measured after 24 hrs by SYBR green staining based RT-PCR analysis. The assay is classed as functional, cell-based.
The test system of assay [10] is Cortical neurone. Nature of the assay: Neuroprotective activity against amyloid beta (25 to 35 residues)-induced cell death in ICR mouse primary cortical neurons assessed as increase in cell viability at 20 uM measured after 2 days by CCK-8 assay. As to conditions: time 2.0 day. The assay is classed as functional, cell-based. Background: Tetrazolium assays rely on reduction of a dye to a coloured formazan, in cell work by metabolically active cells.

Assay [11] relates to Cortical neurone. The assay can be described thus: Neuroprotective activity against amyloid beta (25 to 35 residues)-induced neuritic atrophy in ICR mouse primary cortical neurons assessed as increase in length of MAP2-positive dendrite at 2 to 20 uM measured after 4 days by immunostaining based fluorescence microscopy. The following applies: dose 2-20 µM, time 4.0 day. It is filed as functional, cell-based.

Turning to `CCC(C)(O)/C=C(\CO)CCCC(/C=C(C)/C=C(\C)C[C@@H](C)c1oc(=O)c(C)c(O)c1C)C(=O)O` (some centres undefined), the inhibition at 20 µM in the assay on BV-2 [1] is more than 50%.

Take `CCC(C)/C=C(\CO)CCCC(/C=C(C)/C=C(\C)C[C@@H](C)c1oc(=O)c(C)c(O)c1C)C(=O)O` (some centres undefined): the inhibition at 20 µM in the assay with BV-2 [1] was more than 50%.

As for `CC(=C\C(CCCc1cc(C)c(C)o1)C(=O)O)/C=C(\C)C[C@@H](C)c1oc(=O)c(C)c(O)c1C` (some centres undefined), the inhibition at 20 µM in the assay with BV-2 [1] was more than 50%. The inhibition result in the assay on BV-2 [2], in the assay on BV-2 [3], in the assay with BV-2 [4], in the assay on BV-2 [5] and in the assay on BV-2 [6] was “Active” throughout. Further, the result in the assay with BV-2 [7], with BV-2 [8] and in the assay with BV-2 [9] was inactive. Moreover, the outcome in the assay with Cortical neurone [10] and in the assay on Cortical neurone [11] was Active.

With `CC1=C[C@@](CO)(CCCC(/C=C(C)/C=C(\C)C[C@@H](C)c2oc(=O)c(C)c(O)c2C)C(=O)O)O[C@H]1C` (some centres undefined), the inhibition at 20 µM with BV-2 [1] is more than 50%.

These data come from ChEMBL document CHEMBL5584221, “Anti-inflammatory and Neuroprotective α-Pyrones from a Marine-Derived Strain of the Fungus Arthrinium arundinis and Their Heterologous Expression” (2024).
